Experimental data taken from the supplement of paper PMC10307832.

Key:
Assay in all cases: relative viability (nuclei count vs DMSO), 5 days (fraction); higher = more cells survive
Pictilisib + Lapatinib = compound: CS(=O)(=O)N1CCN(Cc2cc3nc(-c4cccc5[nH]ncc45)nc(N4CCOCC4)c3s2)CC1 [Pictilisib] + CS(=O)(=O)CCNCc1ccc(-c2ccc3ncnc(Nc4ccc(OCc5cccc(F)c5)c(Cl)c4)c3c2)o1 [Lapatinib] (partner 2 µM)
Method in brief: (§1)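 Lung cancer cell lines in 1536-well plates were dosed by pin tool the day after seeding, either with one drug alone or with a fixed anchor-drug dose plus five library-drug doses (not always all listed) in √10 steps. After 5 days, cells were fixed and their nuclei stained in one step (final 0.05% Triton X-100, 1% formaldehyde, 1 ug/ml Hoechst), then counted on 4× images. Relative viability is the nuclei count in treated wells divided by that in vehicle wells. Values are medians of duplicate plates.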

MK-2206 + Trametinib = compound: NC1(c2ccc(-c3nc4ccn5c(=O)[nH]nc5c4cc3-c3ccccc3)cc2)CCC1 [MK-2206] + CC(=O)Nc1cccc(-n2c(=O)n(C3CC3)c(=O)c3c(Nc4ccc(I)cc4F)n(C)c(=O)c(C)c32)c1 [Trametinib] (partner 0.02 µM)
Method in brief: as §1

MK-2206 + Foretinib = compound: NC1(c2ccc(-c3nc4ccn5c(=O)[nH]nc5c4cc3-c3ccccc3)cc2)CCC1 [MK-2206] + COc1cc2c(Oc3ccc(NC(=O)C4(C(=O)Nc5ccc(F)cc5)CC4)cc3F)ccnc2cc1OCCCN1CCOCC1 [Foretinib] (partner 0.25 µM)
Method in brief: as §1

MK-2206 + Linsitinib = compound: NC1(c2ccc(-c3nc4ccn5c(=O)[nH]nc5c4cc3-c3ccccc3)cc2)CCC1 [MK-2206] + C[C@]1(O)C[C@@H](c2nc(-c3ccc4ccc(-c5ccccc5)nc4c3)c3c(N)nccn32)C1 [Linsitinib] (partner 1 µM)
Method in brief: as §1

MK-2206 + Alpelisib = compound: NC1(c2ccc(-c3nc4ccn5c(=O)[nH]nc5c4cc3-c3ccccc3)cc2)CCC1 [MK-2206] + Cc1nc(NC(=O)N2CCC[C@H]2C(N)=O)sc1-c1ccnc(C(C)(C)C(F)(F)F)c1 [Alpelisib] (partner 2 µM)
Method in brief: as §1

Row | Cell Line | relative viability (Pictilisib + Lapatinib; first compound 0.02 µM) | relative viability (Pictilisib + Lapatinib; first compound 0.06325 µM) | relative viability (Pictilisib + Lapatinib; first compound 0.6325 µM) | relative viability (Pictilisib + Lapatinib; first compound 2 µM) | relative viability (MK-2206 + Trametinib; first compound 0.01 µM) | relative viability (MK-2206 + Trametinib; first compound 0.03162 µM) | relative viability (MK-2206 + Trametinib; first compound 0.3162 µM) | relative viability (MK-2206 + Trametinib; first compound 1 µM) | relative viability (MK-2206 + Foretinib; first compound 0.01 µM) | relative viability (MK-2206 + Foretinib; first compound 0.03162 µM) | relative viability (MK-2206 + Foretinib; first compound 0.3162 µM) | relative viability (MK-2206 + Foretinib; first compound 1 µM) | relative viability (MK-2206 + Linsitinib; first compound 0.01 µM) | relative viability (MK-2206 + Linsitinib; first compound 0.03162 µM) | relative viability (MK-2206 + Linsitinib; first compound 0.3162 µM) | relative viability (MK-2206 + Linsitinib; first compound 1 µM) | relative viability (MK-2206 + Alpelisib; first compound 0.01 µM) | relative viability (MK-2206 + Alpelisib; first compound 0.03162 µM) | relative viability (MK-2206 + Alpelisib; first compound 0.3162 µM) | relative viability (MK-2206 + Alpelisib; first compound 1 µM)
1 | NCI-H460 | 1.08 | 1.02 | 0.548 | 0.118 | 0.154 | 0.193 | 0.0937 | 0.0745 | 0.984 | 1.06 | 1.1 | 1.04 | 0.733 | 0.801 | 0.325 | 0.229 | 0.481 | 0.419 | 0.256 | 0.231
2 | NCI-H520 | 0.834 | 0.864 | 0.365 | 0.164 | 0.833 | 0.569 | 0.277 | 0.187 | 0.785 | 1.16 | 0.332 | 0.28 | 1.13 | 0.933 | 0.52 | 0.542 | 0.939 | 0.819 | 0.561 | 0.355
3 | NCI-H596 | 1.1 | 1.02 | 0.602 | 0.367 | 0.728 | 0.756 | 0.713 | 0.603 | 1.02 | 0.921 | 0.677 | 0.77 | 1.14 | 1.11 | 0.846 | 0.734 | 0.518 | 0.623 | 0.401 | 0.473
4 | NCI-H647 | 1.15 | 1.11 | 0.833 | 0.429 | 0.457 | 0.473 | 0.429 | 0.364 | 1.1 | 1.12 | 1.06 | 1.2 | 1.18 | 1.1 | 1.07 | 1.03 | 1.39 | 1.24 | 1.07 | 0.851
5 | NCI-H650 | 1.27 | 0.997 | 0.798 | 0.689 | 0.981 | 0.98 | 1.03 | 0.991 | 0.935 | 1.13 | 1.05 | 1.13 | 0.809 | 1.04 | 0.798 | 0.791 | 1.09 | 1.15 | 1.11 | 0.983
6 | NCI-H661 | 0.461 | 0.444 | 0.447 | 0.27 | 0.573 | 0.712 | 0.603 | 0.503 | 1.01 | 1.09 | 1.01 | 0.986 | 0.583 | 0.725 | 0.665 | 0.541 | 0.745 | 1.07 | 0.688 | 0.473
7 | NCI-H727 | 0.876 | 0.825 | 0.781 | 0.654 | 0.402 | 0.382 | 0.388 | 0.37 | 1.12 | 0.889 | 0.838 | 0.942 | 0.308 | 0.313 | 0.244 | 0.27 | 0.636 | 0.571 | 0.404 | 0.456
8 | NCI-H838 | 1.15 | 0.875 | 0.728 | 0.387 | 0.504 | 0.507 | 0.498 | 0.354 | 0.956 | 1.08 | 0.962 | 0.908 | 1 | 1.03 | 1.02 | 0.95 | 1.02 | 1.02 | 1.01 | 0.943
